Reference: patent US4180655A, “Nitrosourea derivatives” (Suami; Tetsuo, priority 1974, dated 1979)
Like-named read-outs stand apart in the source and are kept apart here.

What was measured:
[1] = test system: Leukemia L1210 cells; assay: Chemotherapeutic effect of nitrosourea derivatives on leukemia L1210 in mice; format: in vivo, mice (BDF1/BDF); design: Volume of ascites, Treated: unit not given here
From the text: Chemotherapeutic effect of a variety of the nitrosourea derivatives of the formula I according to this invention on leukemia L1210 in mice were investigated by the following method and materials.
A--BDF1 mice (about 6 week-aged; body weight: 22±1 g); each experimental group was composed of 2 male mice.
B--BDF1 mice (about 7 week-aged; body weight: 21±2 g); each experimental group was composed of 3 male mice.
C--BDF mice (about 7 week-aged; body weight: 22±2 g); each experimental group was composed of 2 male mice.
D--BDF mice (about 6 week-aged; body weight: 21±2 g); each experimental group was composed of 3 male mice.
E--BDF1 mice (about six week-aged; body weight 20±1 g); each experimental group was composed of 3 female mice.
F--BDF1 mice (about six week-aged; body weight 21±1 g); each experimental group was composed of 3 male mice.
A--Leukemia L1210 cells (2.1×10^6 cells/ 0.05 ml/mouse) were intraperitoneally inoculated.
B--Leukemia L1210 cells (1.9×10^6 cells/0.05 ml/mouse) were intraperitoneally inoculated.
C--Leukemia L1210 cells (1.2×10^6 cells/0.05 ml/mouse) were intraperitoneally inoculated.
A--The test compound was dissolved in a physiological saline solution and administered intraperitoneally at a volume of 0.1 ml/mouse. The administration was made at once/day, from 24 hours after i.p. inoculation of L1210 cells, for 3 days. The effect of test compound was assessed by mean survival days of mice, percent increase in life-span, anatomical findings involving the volume of ascites.
B--The same as that used in A except that the drug administration was continued for 5 days.
C--The same as that used in A except that the test compound was suspended in 0.5% CMC solution and that the drug administration was continued for 5 days.
D--The same as that used in A except that the test compound was dissolved in distilled water for injection purposes.
The percentage increase in life-span (ILS) was calculated as follows:
Percentage increase in life-span (ILS)=T-C/C×100
T: The mean survival days of the treated animals.
C: The mean survival days of the untreated control.

[2] = LD50 value / toxicity in the intraperitoneal administration to BDF1 mice; conditions: mouse, in vivo, ip
From the text: The new nitrosourea derivatives according to this invention are further characterized by their low toxicity, thus satisfying their practical application for treating leukemia and tumor diseases.

[3] = 0.2 mg/kg i.p. once/day for 3 days (procedure A, saline)
[4] = 0.5 mg/kg i.p. once/day for 3 days (procedure A, saline)
[5] = 1 mg/kg i.p. once/day for 3 days (procedure A, saline)
[6] = 2 mg/kg i.p. once/day for 3 days (procedure A, saline)
[7] = 4 mg/kg i.p. once/day for 3 days (procedure A, saline)
[8] = 5 mg/kg i.p. once/day for 3 days (procedure A, saline)
[9] = 6.25 mg/kg i.p. once/day for 3 days (procedure A, saline)
[10] = 8 mg/kg i.p. once/day for 3 days (procedure A, saline)
[11] = 10 mg/kg i.p. once/day for 3 days (procedure A, saline)
[12] = 50 mg/kg i.p. once/day for 3 days (procedure A, saline)
[13] = 100 mg/kg i.p. once/day for 3 days (procedure A, saline)
[14] = 150 mg/kg i.p. once/day for 3 days (procedure A, saline)
[15] = 200 mg/kg i.p. once/day for 3 days (procedure A, saline)
[16] = 100 mg/kg i.p. once/day for 3 days (procedure D, distilled water)
[17] = 200 mg/kg i.p. once/day for 3 days (procedure D, distilled water)
[18] = 400 mg/kg i.p. once/day for 3 days (procedure D, distilled water)

## O=NN(CCCl)C(=O)N[C@@H]1O[C@H](CO)[C@@H](O)[C@H](O)[C@H]1O [Compound 1, 1-(2-chloroethyl)-3-(β-D-glucopyranosyl)-1-nitrosourea]
[1]; [3]
  Survival days, Treated (mean): 12.0 days
  Volume of ascites, Treated: 4.2
[1]; [4]
  Survival days, Treated (mean): 12.5 days
  Volume of ascites, Treated: 4.2
[1]; [5]
  Survival days, Treated (mean): 12.9 days
  Volume of ascites, Treated: 5.0
[1]; [6]
  Survival days, Treated (mean): 15.3 days
  Volume of ascites, Treated: 2.5
[1]; [7]
  Survival days, Treated (mean): 40.3 days
  Volume of ascites, Treated: 0
[1]; [8]
  Survival days, Treated (mean): 15.3 days
  Volume of ascites, Treated: 1.5
[1]; [9]
  Survival days, Treated (mean): > 40.1 days
  Volume of ascites, Treated: 0
[1]; [10]
  Survival days, Treated (mean): 95.9 days
  Volume of ascites, Treated: 0
[1]; [11]
  Survival days, Treated (mean): 95.9 days
  Volume of ascites, Treated: 0
[1]; Mus musculus, L1210, ip, 72 h, 0.2 mg/kg i.p. once/day for 3 days (procedure A, saline), read-out: Percentage increase in life-span (ILS)
  ILS at 0.2 mg/kg: 29%
[1]; Mus musculus, L1210, ip, 72 h, 0.5 mg/kg i.p. once/day for 3 days (procedure A, saline), read-out: Percentage increase in life-span (ILS)
  ILS at 0.5 mg/kg: 34.4%
[1]; Mus musculus, L1210, ip, 72 h, 1 mg/kg i.p. once/day for 3 days (procedure A, saline), read-out: Percentage increase in life-span (ILS)
  ILS at 1 mg/kg: 38.7%
[1]; Mus musculus, L1210, ip, 72 h, 2 mg/kg i.p. once/day for 3 days (procedure A, saline), read-out: Percentage increase in life-span (ILS)
  ILS at 2 mg/kg: 64.5%
[1]; Mus musculus, L1210, ip, 72 h, 4 mg/kg i.p. once/day for 3 days (procedure A, saline), read-out: Percentage increase in life-span (ILS)
  ILS at 4 mg/kg: 333%
[1]; Mus musculus, L1210, ip, 72 h, 5 mg/kg i.p. once/day for 3 days (procedure A, saline), read-out: Percentage increase in life-span (ILS)
  ILS at 5 mg/kg: 64.5%
[1]; Mus musculus, L1210, ip, 72 h, 6.25 mg/kg i.p. once/day for 3 days (procedure A, saline), read-out: Percentage increase in life-span (ILS)
  ILS at 6.25 mg/kg: > 331%
[1]; Mus musculus, L1210, ip, 72 h, 8 mg/kg i.p. once/day for 3 days (procedure A, saline), read-out: Percentage increase in life-span (ILS)
  ILS at 8 mg/kg: 931%
[1]; Mus musculus, L1210, ip, 72 h, 10 mg/kg i.p. once/day for 3 days (procedure A, saline), read-out: Percentage increase in life-span (ILS)
  ILS at 10 mg/kg: 931%
[2]
  LD50: ~25 mg/kg

## CN(N=O)C(=O)N[C@@H]1O[C@H](CO)[C@@H](O)[C@H](O)[C@H]1O [Compound 11, 1-(β-D-glucopyranosyl)-3-methyl-3-nitrosourea, reference compound]
[1]; [12]
  Survival days, Treated (mean): 12.0 days
  Volume of ascites, Treated: 2.8
[1]; [13]
  Survival days, Treated (mean): 13.9 days
  Volume of ascites, Treated: 4.6
[1]; [14]
  Survival days, Treated (mean): 14.1 days
  Volume of ascites, Treated: 1.9
[1]; [15]
  Survival days, Treated (mean): 16.6 days
  Volume of ascites, Treated: 1.4
[1]; Mus musculus, L1210, ip, 72 h, 50 mg/kg i.p. once/day for 3 days (procedure A, saline), read-out: Percentage increase in life-span (ILS)
  ILS at 50 mg/kg: 55.6%
[1]; Mus musculus, L1210, ip, 72 h, 100 mg/kg i.p. once/day for 3 days (procedure A, saline), read-out: Percentage increase in life-span (ILS)
  ILS at 100 mg/kg: 80.7%
[1]; Mus musculus, L1210, ip, 72 h, 150 mg/kg i.p. once/day for 3 days (procedure A, saline), read-out: Percentage increase in life-span (ILS)
  ILS at 150 mg/kg: 83.4%
[1]; Mus musculus, L1210, ip, 72 h, 200 mg/kg i.p. once/day for 3 days (procedure A, saline), read-out: Percentage increase in life-span (ILS)
  ILS at 200 mg/kg: 108%

## CN(N=O)C(=O)N[C@@H](CO)[C@@H](O)[C@H](O)[C@H](O)CO [Compound 12, N-carbamoyl-N'-methyl-N'-nitroso-D-glucosaminol, reference compound]
[1]; [16]
  Survival days, Treated (mean): 13.9 days
  Volume of ascites, Treated: 3.0
[1]; [17]
  Survival days, Treated (mean): 15.0 days
  Volume of ascites, Treated: 4.0
[1]; [18]
  Survival days, Treated (mean): 13.4 days
  Volume of ascites, Treated: 3.4
[1]; Mus musculus, L1210, ip, 72 h, 100 mg/kg i.p. once/day for 3 days (procedure D, distilled water), read-out: Percentage increase in life-span (ILS)
  ILS at 100 mg/kg: 30%
[1]; Mus musculus, L1210, ip, 72 h, 200 mg/kg i.p. once/day for 3 days (procedure D, distilled water), read-out: Percentage increase in life-span (ILS)
  ILS at 200 mg/kg: 40%
[1]; Mus musculus, L1210, ip, 72 h, 400 mg/kg i.p. once/day for 3 days (procedure D, distilled water), read-out: Percentage increase in life-span (ILS)
  ILS at 400 mg/kg: 25%
